For one data set, the system named is Osteoclast. The experiment in a line: Inhibition of RANKL-induced mouse BMDM cell differentiation assessed as reduction in TRAP-positive multi-nucleated osteoclast cells preincubated for 5 mins followed by RANKL/M-CSF addition measured after 4 days by light microscopic analysis. It is filed as functional, cell-based.
For data set [1], the system named is C2C12. The data set is described as follows: Increase in BMP2-induced BMP4 mRNA expression in mouse C2C12 cells at 10 uM measured on day 3 by real-time PCR analysis. The data set is classed as functional, cell-based.
Another data set deals with SMAD1/5/9 (Mus musculus) (UniProt P70340+P97454+Q9JIW5). The experiment in a line: Activation of Smad1/5/8 in mouse C2C12 cells assessed as increase in BMP2-stimulated […] mRNA expression at 10 uM preincubated with cells followed by BMP2 addition after 3 days by real-time PCR analysis. The data set is classed as cell-based.
Data set [2] deals with Mus musculus. The data set is described as follows: Osteogenic activity in ICR mouse calvarial bone implanted with collagen sponges containing 10 mM compound incubated for 2 weeks assessed as increase in bone volume relative to control. The data set is classed as functional.
Data set [3] in a line: Inhibition of RANKL-induced c-Fos expression in mouse BMDM cells assessed as ratio of c-Fos to actin at 10 uM preincubated with cells followed RANKL/M-CSF addition measured after 1 day by Western blot analysis (reference value: 6.4). It is filed as functional.
Data set [4] has as its system BMDM. The experiment in a line: Inhibition of RANKL-induced mouse BMDM cell differentiation assessed as TRAP-positive MNCs at 0.1 to 30 uM preincubated for 5 mins followed by RANKL/M-CSF addition measured after 4 days by TRAP-staining based assay. The data set is classed as functional.
Data set [5] concerns the target T1, NF-kappa-B inhibitor alpha (Mus musculus) (UniProt Q9Z1E3).
T1 sequence (whole entry): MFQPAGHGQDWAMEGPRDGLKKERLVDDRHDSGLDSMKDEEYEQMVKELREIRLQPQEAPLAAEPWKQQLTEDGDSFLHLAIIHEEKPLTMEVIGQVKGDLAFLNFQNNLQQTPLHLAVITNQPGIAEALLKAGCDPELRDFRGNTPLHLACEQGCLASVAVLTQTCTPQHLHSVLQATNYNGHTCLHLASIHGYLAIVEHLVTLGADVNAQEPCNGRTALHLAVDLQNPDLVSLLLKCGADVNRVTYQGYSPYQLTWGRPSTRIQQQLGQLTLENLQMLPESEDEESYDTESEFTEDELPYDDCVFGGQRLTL
The experiment in a line: Inhibition of RANKL-induced IkBalpha phosphorylation in mouse BMDM cells at 10 uM preincubated for 5 mins followed RANKL/M-CSF addition for 5 mins by Western blot analysis. It is filed as cell-based.

The subject of data set [6] is C2C12. The data set is described as follows: Increase in BMP2-induced BMP7 mRNA expression in mouse C2C12 cells at 10 uM measured on day 3 by real-time PCR analysis. It is filed as functional, cell-based.
The target of data set [7] is MAP kinase p38 (Mus musculus) (UniProt P47811+O08911+Q9WUI1+Q9Z1B7). The data set is described as follows: Inhibition of RANKL-induced p38 phosphorylation in mouse BMDM cells assessed as ratio of phosphorylated p38 to p38 at 10 uM preincubated for 5 mins followed RANKL/M-CSF addition for 5 mins by Western blot analysis (reference value: 24.7). It is filed as cell-based.

The species entered for data set [8] is Mus musculus. The data set is described as follows: Cytotoxicity against mouse BMDM cells assessed as reduction in cell viability up to 10 uM after 3 days in presence of M-CSF by CCK-8 assay. The data set is classed as toxicity, cell-based. To be noted: 72 h.
Data set [9] has as its target Mitogen-activated protein kinase 1 (Mus musculus) (UniProt P63085). The data set is described as follows: Inhibition of RANKL-induced ERK2 phosphorylation in mouse BMDM cells assessed as ratio of phosphorylated ERK2 to ERK2 at 10 uM preincubated for 5 mins followed RANKL/M-CSF addition for 5 mins by Western blot analysis (reference value: 2.6). The data set is classed as cell-based. On the technique in general: In western blotting, separated proteins are transferred to a membrane and probed.

Data set [10] relates to BMDM. The experiment in a line: Inhibition of RANKL-induced mouse BMDM cell differentiation assessed as reduction in TRAP activity at 0.1 to 30 uM using p-nitrophenyl phosphate as substrate preincubated for 5 mins followed by RANKL/M-CSF addition measured after 4 days. The data set is classed as functional, cell-based.

Each structure is given as a SMILES string. Active and inactive are the calls of the source. The rule behind the calls is not given here.

Chain of Mitogen-activated protein kinase 1 (Mus musculus) (P63085 whole entry): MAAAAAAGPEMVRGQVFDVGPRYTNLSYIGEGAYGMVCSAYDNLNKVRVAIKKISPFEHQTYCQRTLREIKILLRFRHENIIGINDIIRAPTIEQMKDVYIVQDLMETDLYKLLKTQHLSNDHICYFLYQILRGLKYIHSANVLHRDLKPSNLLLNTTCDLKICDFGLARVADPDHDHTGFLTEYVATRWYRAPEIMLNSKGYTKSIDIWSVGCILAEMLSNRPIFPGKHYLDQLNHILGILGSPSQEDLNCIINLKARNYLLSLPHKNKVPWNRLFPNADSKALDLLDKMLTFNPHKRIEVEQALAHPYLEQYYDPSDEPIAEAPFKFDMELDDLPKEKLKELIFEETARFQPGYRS

For the compound `COc1cccc(OC)c1C(=O)c1c(O)cc(C)c(OC)c1C1=C(c2c(OC)cccc2OC)c2c(O)cc(C)c(OC)c2C1=O`, in the data set on Osteoclast, the inhibition result is “Dose-dependent effect”. Besides, the outcome in the data set with C2C12 [1], on SMAD1/5/9 (Mus musculus) and in the data set on C2C12 [6] was Active. Moreover, the “fold change (FC)” value amounted to 2.7 with Mus musculus [2], 5.5 in data set [3], 13.2 in [7] and 2.8 in [9]. Also, the inhibition entry (with BMDM [4]; in data set [5]; with BMDM [10]) was “Active” each time. For the same compound, the Activity entry in the data set listed under Mus musculus [8] was “Non-Toxic”.

The values are drawn from ChEMBL document CHEMBL3861969, “Acredinone C and the Effect of Acredinones on Osteoclastogenic and Osteoblastogenic Activity” (J Nat Prod, 2016).
